The experiment concerns CD39^+/+ and CD39^−/− mice exposed to hypoxia. The experiment can be described thus: Ectonucleotidase reconstitution and P2X1 receptor blocking in murine chronic hypoxia model of pulmonary hypertension. The class given is in vivo, mouse. The conditions noted are these: for development of pulmonary hypertension (PH): continuous infusion during four weeks of hypoxia, CD39^+/+ and CD39^−/− mice; for pulmonary arterial pressures: continuous administration. The text has this:
Seven-week-old CD39^+/+ and CD39^−/− mice were maintained at 10% oxygen (normobaric) for four weeks using a purpose-built, normobaric hypoxia chamber with automated oxygen-regulating capability. Circulating air was scavenged using charcoal and soda lime (Sigma-Aldrich, St. Louis, MO). Temperature and humidity were monitored, and the latter maintained within normal limits using Dririte (Sigma-Aldrich, St. Louis, MO). Normoxic control mice were maintained in the same room at 21% oxygen, which was verified by a continuous oxygen sensor (BioSpherix, Lacona, NY). All animals were given free access to food and water, and were maintained on a 12-hour dark/light cycle.
Mice were anesthetized using 2% isoflurane. A tracheostomy was performed, and animals were ventilated using 21% or 10% oxygen administered thorough the ventilator circuit. Optimal ventilator settings were confirmed using arterial blood gas measurements. After a median sternotomy was performed, hemodynamic measurements were made using a 1.2F solid state pressure catheter (Scisense Transonic, London, ON) inserted through the right ventricular (RV) free wall into the RV cavity and advanced into the pulmonary artery (PA). Placement was verified using the pressure waveform. Data including the right ventricular systolic pressure (RVSP) and mean PA (mPA) pressures were collected and analyzed using LabScribe2 (iWorx, Dover, NH). Continuous EKG monitoring was performed using the MouseMonitor (Indus Instruments, Webster, TX).
Alzet osmotic pumps (DURECT, Cupertino, CA) were used to deliver either 15 units of
apyrase (A6410, Sigma-Aldrich, St. Louis, MO), 25 mM of NF279 (Tocris Bioscience/Bio-Techne, Minneapolis, MN) or sterile 0.9% sodium chloride over a four-week period at a rate of 0.11 μl/hr.
Based upon findings of increased intravascular ATP and ADP, significant up-regulation of the P2X1 receptor, and severe pulmonary hypertension in hypoxic CD39-mice, two sets of rescue experiments were designed aimed at reversing the PH phenotype. The first rescue experiment involved the reconstitution of intravascular ectonucleotidase activity. Soluble potato tuber apyrase has known ATPase and ADPase activity, and has been used in prior studies involving CD39^−/− mice (ref. 24, 44; incorporated by reference in their entireties). Sequence homology of this apyrase is similar to human and murine CD39 (ref. 19; incorporated by reference in its entirety). […] The second rescue experiment involved the continuous infusion of NF279 (8,8′-[Carbonylbis (imino-4,1-phenylenecarbonylimino-4,1-phenylenecarbonylimino)]bis-1,3,5-naphthalenetrisulfonic acid hexasodium salt):
a sensitive and specific P2X1 antagonist, during four weeks of hypoxia. […] Pulmonary Vessels from Patients with IPAH have Increased P2X1 Receptors

The values below come from patent publication US20240358663A1, “COMPOSITIONS AND METHODS FOR THE TREATMENT OF PULMONARY ARTERIAL HYPERTENSION” (The Regents of the University of Michigan, priority 2016, published 2024).

Entries after “also recorded” stand apart in the source; their conditions may differ.

As for `O=C(Nc1ccc(C(=O)Nc2ccc(C(=O)Nc3ccc(S(=O)(=O)[O-])c4cc(S(=O)(=O)[O-])cc(S(=O)(=O)[O-])c34)cc2)cc1)Nc1ccc(C(=O)Nc2ccc(C(=O)Nc3ccc(S(=O)(=O)[O-])c4cc(S(=O)(=O)[O-])cc(S(=O)(=O)[O-])c34)cc2)cc1.[Na+].[Na+].[Na+].[Na+].[Na+].[Na+]` [NF279, 8,8′-[Carbonylbis (imino-4,1-phenylenecarbonylimino-4,1-phenylenecarbonylimino)]bis-1,3,5-naphthalenetrisulfonic acid hexasodium salt, reference compound], the “development of pulmonary hypertension (PH)” value (FIG. 5c) was “prevented the development of PH in all groups; also recorded: protected both CD39^+/+ and CD39-4-mice from the development of hypoxic pulmonary hypertension”. Besides, the pulmonary arterial pressures entry (hypoxic CD39^−/− mice) is “lowered pulmonary arterial pressures even further”.

As for apyrase, the “development of pulmonary hypertension (PH)” value (FIG. 5c) was “provided partial protection against the development of pulmonary hypertension”. Besides, under “continuous subcutaneous administration during four weeks of hypoxia (10% oxygen), compared to control mice that received continuous saline infusions, FIG. 5c”, the “right ventricular systolic pressure (RVSP)” value is on record as “significantly decreased the RVSP”. For the same molecule, where the note is “hypoxic CD39^−/− mice”, the pulmonary arterial pressures entry is listed as “decreased pulmonary arterial pressures in hypoxic CD39-mice to levels found in hypoxic CD39^+/+ controls”. Besides, the “RVSP relative to levels found in normoxic CD39^+/+ mice” value (hypoxic CD39^−/− mice, four weeks of continuous administration, FIG. 5c) was “did not decrease the RVSP in hypoxic CD39^−/− mice to levels found in normoxic CD39^+/+ mice”.
